Measurements reported in article PMC11079024, “Identification of a family of species-selective complex I inhibitors as potential anthelmintics” (Nature Communications, 2024).
Like-named read-outs stand apart in the source and are kept apart here.

Key:
[1] = test system: L1 wild-type C. elegans; experiment: microbe, parasite or virus in culture; conditions: Caenorhabditis elegans, read-out: C. elegans KCN Survival Assay LC50, estimated from fitted dose-response curves; mean of at least two biological replicates
[2] = in vitro; conditions: human; for viability at 2 days, 3.13 µM / viability at 2 days, 6.25 µM / viability at 2 days, 12.5 µM / viability at 2 days, 25 µM / viability at 2 days, 50 µM / viability at 2 days, 100 µM: HEK293 cells (Flp-In-293), HEK293 viability
[3] = test system: L1 wild-type C. elegans; conditions: for Screen "Hit": 50 μM
[4] = molecular target: B. taurus (heart) complex I (Bos taurus, UniProt P03887+P17694+P42026); experiment: biochemical; format: biochemical; conditions: for activity at 0.0001 µM / activity at 0.0005 µM / activity at 0.001 µM / activity at 0.0025 µM / activity at 0.005 µM / activity at 0.013 µM / activity at 0.025 µM / activity at 0.063 µM / activity at 0.125 µM / activity at 0.313 µM / activity at 0.625 µM / activity at 1.5 µM / activity at 3 µM / activity at 15 µM / activity at 37.5 µM / activity at 75 µM: read-out: B. taurus mitochondrial complex I activity; for Log IC50 B. taurus complex I: log10 of IC50 in µM, B. taurus mitochondria
B. taurus (heart) complex I, sequence (P03887 whole entry): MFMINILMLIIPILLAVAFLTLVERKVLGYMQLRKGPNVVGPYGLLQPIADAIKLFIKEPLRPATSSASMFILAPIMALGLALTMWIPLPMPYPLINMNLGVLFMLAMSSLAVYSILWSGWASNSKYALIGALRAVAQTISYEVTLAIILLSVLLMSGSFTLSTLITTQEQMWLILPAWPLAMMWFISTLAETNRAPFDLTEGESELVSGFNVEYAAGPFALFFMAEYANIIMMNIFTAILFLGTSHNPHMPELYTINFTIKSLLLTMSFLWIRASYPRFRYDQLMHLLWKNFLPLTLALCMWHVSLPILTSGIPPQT
B. taurus (heart) complex I, sequence (P17694 34-463): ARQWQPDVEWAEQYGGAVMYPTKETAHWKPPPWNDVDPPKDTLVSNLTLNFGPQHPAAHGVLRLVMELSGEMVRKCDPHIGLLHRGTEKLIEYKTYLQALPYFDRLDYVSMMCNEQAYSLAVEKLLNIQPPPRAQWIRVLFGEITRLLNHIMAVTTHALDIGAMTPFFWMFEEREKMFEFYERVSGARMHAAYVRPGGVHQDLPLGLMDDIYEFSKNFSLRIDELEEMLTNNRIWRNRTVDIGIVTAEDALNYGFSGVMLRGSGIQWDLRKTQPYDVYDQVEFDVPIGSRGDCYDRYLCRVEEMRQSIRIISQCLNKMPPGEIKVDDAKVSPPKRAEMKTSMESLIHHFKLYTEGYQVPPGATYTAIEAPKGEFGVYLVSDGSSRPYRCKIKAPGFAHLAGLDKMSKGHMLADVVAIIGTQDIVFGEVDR
B. taurus (heart) complex I, sequence (P42026 38-216): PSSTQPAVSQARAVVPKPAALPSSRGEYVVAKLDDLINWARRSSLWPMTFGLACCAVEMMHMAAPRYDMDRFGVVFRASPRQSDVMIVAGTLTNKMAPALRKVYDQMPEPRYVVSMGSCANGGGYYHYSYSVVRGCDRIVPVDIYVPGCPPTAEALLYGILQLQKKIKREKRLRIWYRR
Method in brief: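 Complex I activity followed as DCIP reduction (600 nm, 30 s reads, 15 min) with 80 μM NADH and 60 μM decylubiquinone in 25 mM KPi pH 7.5 containing 2 μM antimycin A and 2 mM KCN. Freeze-thawed mouse or bovine heart mitochondria at 0.2 mg/mL; initial-rate percent of solvent control, single-point 100 μM or dose-response.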

[5] = test system: ben-1 mutant (ECA882) C. elegans; experiment: microbe, parasite or virus in culture; conditions: Caenorhabditis elegans; for viability at 1 µM / viability at 2 µM / viability at 3.9 µM / viability at 15.6 µM / viability at 31.3 µM / viability at 62.5 µM / viability at 125 µM / viability at 250 µM / viability at 500 µM / viability at 1000 µM: read-out: C. elegans ben-1(e1880) development/viability
Method in brief: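 L1 larvae (~2 worms/μL in M9) in liquid NGM with 2-fold concentrated E. coli HB101, compound at 1% DMSO, 6 days at 20 °C shaking 165 rpm. Well images scored as summed worm-associated pixels, normalized to DMSO controls; relative viability averaged over at least three biological replicates.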

[6] = hit = relative motility below 0.25 3 hours after removal of KCN
[7] = Dose 0.2 µM, mean of at least three biological replicates
[8] = B. taurus heart mitochondria, read-out: B. taurus Complex I IC50
[9] = read-out: C. elegans (ben-1) Development & Viability Assay LC50
[10] = read-out: C. elegans ben-1 log10 LC50 (converted)

Cc1nc2ccccc2n1CCOc1ccccc1 [Compound 5550112]
LC50 [1]: 32.9 µM
CC50 at 2 days ([2]; HEK293 Cell Viability Assay LC50, HEK293 cells, estimated from fitted dose-response curves): > 100 µM
viability at 2 days, 3.13 µM [2]: 100%
viability at 2 days, 6.25 µM [2]: 98.3%
viability at 2 days, 12.5 µM [2]: 99.1%
viability at 2 days, 25 µM [2]: 100%
viability at 2 days, 50 µM [2]: 100%
viability at 2 days, 100 µM [2]: 100%
Screen "Hit" [3, 6]: Y (hits were identified as compounds that reduced relative motility below 0.25 (75% reduction))
C. elegans KCN Survival [3, 7]: 0.995
C. elegans KCN Survival ([3]; Dose 0.39 µM): 1.044
C. elegans KCN Survival ([3]; Dose 1.56 µM): 1.038
C. elegans KCN Survival ([3]; Dose 3.13 µM): 1.021
C. elegans KCN Survival ([3]; Dose 6.25 µM): 1.008
C. elegans KCN Survival ([3]; Dose 12.5 µM): 0.918
C. elegans KCN Survival ([3]; Dose 25 µM): 0.699
C. elegans KCN Survival ([3]; Dose 50 µM): 0.269
C. elegans KCN Survival ([3]; Dose 100 µM): 0.187
IC50 [4, 8]: 9.86 µM
activity at 0.0001 µM [4]: 101%
activity at 0.0005 µM [4]: 97.8%
activity at 0.001 µM [4]: 105%
activity at 0.0025 µM [4]: 102%
activity at 0.005 µM [4]: 103%
activity at 0.013 µM [4]: 98.3%
activity at 0.025 µM [4]: 99.2%
activity at 0.063 µM [4]: 91.8%
activity at 0.125 µM [4]: 95.1%
activity at 0.313 µM [4]: 92.8%
activity at 0.625 µM [4]: 96.9%
activity at 1.5 µM [4]: 85.2%
activity at 3 µM [4]: 74.2%
activity at 15 µM [4]: 36.6%
activity at 37.5 µM [4]: 16.7%
activity at 75 µM [4]: 5.1%
Log IC50 B. taurus complex I [4]: 0.99 µM
LC50 [5, 9]: > 1000 µM
viability at 1 µM [5]: 99.2%
viability at 2 µM [5]: 100%
viability at 3.9 µM [5]: 96.9%
viability at 15.6 µM [5]: 97.1%
viability at 31.3 µM [5]: 92.9%
viability at 62.5 µM [5]: 100%
viability at 125 µM [5]: 93.6%
viability at 250 µM [5]: 86.4%
viability at 500 µM [5]: 91.2%
viability at 1000 µM [5]: 92.4%
LC50 ([5]; read-out: C. elegans ben-1 LC50): > 500 µM
LC50 [5, 10]: > 500 µM

Cc1nc2ccccc2n1CCOc1ccccc1Cl [Compound 5561642]
LC50 [1]: 11.7 µM
CC50 at 2 days [2]: 93.1 µM
viability at 2 days, 3.13 µM [2]: 100%
viability at 2 days, 6.25 µM [2]: 100%
viability at 2 days, 12.5 µM [2]: 100%
viability at 2 days, 25 µM [2]: 100%
viability at 2 days, 50 µM [2]: 81.4%
viability at 2 days, 100 µM [2]: 46.4%
Screen "Hit" [3, 6]: Y (hits were identified as compounds that reduced relative motility below 0.25 (75% reduction))
C. elegans KCN Survival [3, 7]: 0.982
C. elegans KCN Survival ([3]; Dose 0.39 µM): 1.047
C. elegans KCN Survival ([3]; Dose 1.56 µM): 0.991
C. elegans KCN Survival ([3]; Dose 3.13 µM): 0.985
C. elegans KCN Survival ([3]; Dose 6.25 µM): 0.849
C. elegans KCN Survival ([3]; Dose 12.5 µM): 0.500
C. elegans KCN Survival ([3]; Dose 25 µM): 0.148
C. elegans KCN Survival ([3]; Dose 50 µM): 0.182
IC50 [4, 8]: 8.05 µM
activity at 0.0001 µM [4]: 88.4%
activity at 0.0005 µM [4]: 88.9%
activity at 0.001 µM [4]: 90.3%
activity at 0.0025 µM [4]: 85.7%
activity at 0.005 µM [4]: 90.4%
activity at 0.013 µM [4]: 86.9%
activity at 0.025 µM [4]: 83.6%
activity at 0.063 µM [4]: 88.9%
activity at 0.125 µM [4]: 88.4%
activity at 0.313 µM [4]: 83.2%
activity at 0.625 µM [4]: 86.2%
activity at 1.5 µM [4]: 75.9%
activity at 3 µM [4]: 63.2%
activity at 15 µM [4]: 29.8%
activity at 37.5 µM [4]: 11.9%
activity at 75 µM [4]: 6%
Log IC50 B. taurus complex I [4]: 0.91 µM
LC50 [5, 9]: 636 µM
viability at 1 µM [5]: 97%
viability at 2 µM [5]: 98.6%
viability at 3.9 µM [5]: 100%
viability at 15.6 µM [5]: 99.1%
viability at 31.3 µM [5]: 100%
viability at 62.5 µM [5]: 91.8%
viability at 125 µM [5]: 98.9%
viability at 250 µM [5]: 96.4%
viability at 500 µM [5]: 35.3%
viability at 1000 µM [5]: 46.7%
LC50 [5, 10]: 635 µM

Cc1nc2ccccc2n1Cc1ccc(Br)cc1 [Compound 5567167]
LC50 [1]: 1.34 µM
CC50 at 2 days ([2]; HEK293 Cell Viability Assay LC50, HEK293 cells, estimated from fitted dose-response curves, mean of at least two biological replicates): 89.3 µM
Screen "Hit" ([3]; KCN survival assay, hit = relative motility below 0.25): Y (hits were identified as compounds that reduced relative motility below 0.25 (75% reduction))
IC50 ([4]; B. taurus heart mitochondria, estimated from fitted dose-response curves, read-out: B. taurus Complex I IC50): 0.209 µM
IC50 ([4]; in vitro complex I dose response on B. taurus mitochondria, average of at least two biological replicates, fit in R (DRC), read-out: IC50 B. taurus complex I): 0.21 µM
Log IC50 B. taurus complex I [4]: -0.68 µM
LC50 [5, 9]: 11.2 µM
LC50 [5, 10]: 11.2 µM
